The text below walks through data of ChEMBL document CHEMBL3431459, “Roche carnitine palmitoyltransferase modulator screening data (supplementary data associated with the publication CHEMBL2216752)”.

Molecules are shown by their SMILES. ≈ marks a conversion by molar mass, not a printed value.

Data set [1] is described as follows: SUPPLEMENTARY: Lipophilicity (log D) Determination by high-throughput shake-flask. Type of data set: physicochemical. The following applies: octanol/water.
Data set [2] in a line: SUPPLEMENTARY: PAMPA permeability assay. Type of data set: physicochemical. The following applies: read-out: Permeability.
Data set [3] addresses T1, Carnitine O-palmitoyltransferase 1, liver isoform (Rattus norvegicus, UniProt P32198).
T1 sequence (P32198 whole entry): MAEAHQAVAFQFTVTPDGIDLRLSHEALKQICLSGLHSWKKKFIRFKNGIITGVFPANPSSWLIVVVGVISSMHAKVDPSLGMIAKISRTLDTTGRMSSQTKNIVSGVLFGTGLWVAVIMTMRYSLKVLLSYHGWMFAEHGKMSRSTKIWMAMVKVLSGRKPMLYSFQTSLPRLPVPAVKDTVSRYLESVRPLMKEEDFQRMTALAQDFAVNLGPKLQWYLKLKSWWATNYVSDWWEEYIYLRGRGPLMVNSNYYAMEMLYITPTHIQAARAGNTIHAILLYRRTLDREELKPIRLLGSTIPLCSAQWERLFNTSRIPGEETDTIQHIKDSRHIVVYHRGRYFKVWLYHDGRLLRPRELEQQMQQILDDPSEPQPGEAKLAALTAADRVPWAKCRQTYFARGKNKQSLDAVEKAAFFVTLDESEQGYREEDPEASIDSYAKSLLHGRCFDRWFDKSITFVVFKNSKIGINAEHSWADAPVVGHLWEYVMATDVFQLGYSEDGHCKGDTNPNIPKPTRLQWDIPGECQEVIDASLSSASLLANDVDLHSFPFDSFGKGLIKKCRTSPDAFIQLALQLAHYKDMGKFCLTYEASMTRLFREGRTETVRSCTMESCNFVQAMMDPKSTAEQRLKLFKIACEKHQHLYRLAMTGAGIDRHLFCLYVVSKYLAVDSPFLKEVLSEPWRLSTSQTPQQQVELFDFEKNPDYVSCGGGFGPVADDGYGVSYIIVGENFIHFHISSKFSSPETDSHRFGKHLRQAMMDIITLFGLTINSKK
In words: (§1) SUPPLEMENTARY: Inhibition of Carnitine palmitoyltransferase 1, liver isoform.

Data set [4] has as its target T2, Carnitine O-palmitoyltransferase 1, liver isoform (Homo sapiens, UniProt P50416).
T2 sequence (P50416 whole entry): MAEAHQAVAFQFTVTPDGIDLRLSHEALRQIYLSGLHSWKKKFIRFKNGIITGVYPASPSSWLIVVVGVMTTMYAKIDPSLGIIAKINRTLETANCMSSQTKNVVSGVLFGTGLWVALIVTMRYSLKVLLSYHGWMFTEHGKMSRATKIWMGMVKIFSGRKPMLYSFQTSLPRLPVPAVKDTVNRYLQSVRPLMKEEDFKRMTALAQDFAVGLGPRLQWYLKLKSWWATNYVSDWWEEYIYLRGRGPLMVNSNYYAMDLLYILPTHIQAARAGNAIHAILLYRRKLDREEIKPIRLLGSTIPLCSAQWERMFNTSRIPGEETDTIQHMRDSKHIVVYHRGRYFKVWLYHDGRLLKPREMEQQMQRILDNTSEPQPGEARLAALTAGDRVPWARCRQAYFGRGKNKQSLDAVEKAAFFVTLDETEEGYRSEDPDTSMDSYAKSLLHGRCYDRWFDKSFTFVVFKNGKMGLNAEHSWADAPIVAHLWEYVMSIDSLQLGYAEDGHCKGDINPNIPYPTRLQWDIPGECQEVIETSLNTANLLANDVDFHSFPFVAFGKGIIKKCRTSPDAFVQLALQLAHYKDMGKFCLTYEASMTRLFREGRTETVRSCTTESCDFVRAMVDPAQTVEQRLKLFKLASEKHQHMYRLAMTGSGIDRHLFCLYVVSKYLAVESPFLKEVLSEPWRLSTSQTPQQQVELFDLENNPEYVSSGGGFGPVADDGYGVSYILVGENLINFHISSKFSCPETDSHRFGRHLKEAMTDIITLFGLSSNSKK
Described as §1.

Data set [5] in a line: SUPPLEMENTARY: Lyophilisation Solubility Assay (LYSA). Type of data set: physicochemical. The conditions noted are these: read-out: Kinetic_solubility.
The target of data set [6] is T3, Carnitine O-palmitoyltransferase 2, mitochondrial (Homo sapiens, UniProt P23786).
T3 sequence (P23786 whole entry): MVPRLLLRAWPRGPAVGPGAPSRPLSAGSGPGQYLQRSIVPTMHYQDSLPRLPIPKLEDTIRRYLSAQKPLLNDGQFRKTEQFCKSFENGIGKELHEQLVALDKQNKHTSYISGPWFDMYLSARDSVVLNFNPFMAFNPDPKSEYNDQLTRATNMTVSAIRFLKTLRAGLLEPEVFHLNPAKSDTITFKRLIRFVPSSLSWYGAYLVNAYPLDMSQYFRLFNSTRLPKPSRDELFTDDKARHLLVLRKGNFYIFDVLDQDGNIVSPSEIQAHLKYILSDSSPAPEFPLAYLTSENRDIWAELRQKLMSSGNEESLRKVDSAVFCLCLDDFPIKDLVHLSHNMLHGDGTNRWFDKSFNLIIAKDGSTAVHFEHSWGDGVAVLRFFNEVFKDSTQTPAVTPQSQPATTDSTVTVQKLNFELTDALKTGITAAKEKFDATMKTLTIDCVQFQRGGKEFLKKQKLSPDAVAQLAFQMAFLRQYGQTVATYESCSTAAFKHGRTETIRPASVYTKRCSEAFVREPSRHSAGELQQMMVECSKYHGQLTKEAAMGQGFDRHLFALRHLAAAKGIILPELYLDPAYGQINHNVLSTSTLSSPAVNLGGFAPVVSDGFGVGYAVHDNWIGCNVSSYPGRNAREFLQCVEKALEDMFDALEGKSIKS
As to the kind of experiment: (§2) SUPPLEMENTARY: Inhibition of Carnitine palmitoyltransferase 2.

The target of data set [7] is T4, Carnitine O-palmitoyltransferase 2, mitochondrial (Rattus norvegicus, UniProt P18886).
T4 sequence (P18886 whole entry): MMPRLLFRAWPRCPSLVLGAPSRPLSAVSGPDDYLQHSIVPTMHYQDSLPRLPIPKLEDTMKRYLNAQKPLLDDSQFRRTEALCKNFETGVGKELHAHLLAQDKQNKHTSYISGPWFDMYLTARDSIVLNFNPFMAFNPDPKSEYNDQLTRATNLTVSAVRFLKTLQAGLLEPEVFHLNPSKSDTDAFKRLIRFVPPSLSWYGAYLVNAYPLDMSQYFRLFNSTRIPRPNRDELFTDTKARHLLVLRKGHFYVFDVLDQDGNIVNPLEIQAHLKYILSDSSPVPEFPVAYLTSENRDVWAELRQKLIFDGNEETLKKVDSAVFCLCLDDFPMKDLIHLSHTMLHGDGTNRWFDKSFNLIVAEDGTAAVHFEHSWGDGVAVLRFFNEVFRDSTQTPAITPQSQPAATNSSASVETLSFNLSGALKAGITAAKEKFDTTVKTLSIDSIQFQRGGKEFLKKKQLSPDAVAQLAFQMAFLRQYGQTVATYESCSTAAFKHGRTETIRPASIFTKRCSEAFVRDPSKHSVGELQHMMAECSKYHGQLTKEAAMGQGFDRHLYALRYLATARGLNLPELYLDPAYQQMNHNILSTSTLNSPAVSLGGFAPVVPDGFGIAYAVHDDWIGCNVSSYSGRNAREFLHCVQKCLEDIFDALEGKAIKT
The data set is described as §2.

Data set [8] concerns the target T5, Carnitine O-palmitoyltransferase 1, muscle isoform (Homo sapiens, UniProt Q92523).
T5 sequence (Q92523 whole entry): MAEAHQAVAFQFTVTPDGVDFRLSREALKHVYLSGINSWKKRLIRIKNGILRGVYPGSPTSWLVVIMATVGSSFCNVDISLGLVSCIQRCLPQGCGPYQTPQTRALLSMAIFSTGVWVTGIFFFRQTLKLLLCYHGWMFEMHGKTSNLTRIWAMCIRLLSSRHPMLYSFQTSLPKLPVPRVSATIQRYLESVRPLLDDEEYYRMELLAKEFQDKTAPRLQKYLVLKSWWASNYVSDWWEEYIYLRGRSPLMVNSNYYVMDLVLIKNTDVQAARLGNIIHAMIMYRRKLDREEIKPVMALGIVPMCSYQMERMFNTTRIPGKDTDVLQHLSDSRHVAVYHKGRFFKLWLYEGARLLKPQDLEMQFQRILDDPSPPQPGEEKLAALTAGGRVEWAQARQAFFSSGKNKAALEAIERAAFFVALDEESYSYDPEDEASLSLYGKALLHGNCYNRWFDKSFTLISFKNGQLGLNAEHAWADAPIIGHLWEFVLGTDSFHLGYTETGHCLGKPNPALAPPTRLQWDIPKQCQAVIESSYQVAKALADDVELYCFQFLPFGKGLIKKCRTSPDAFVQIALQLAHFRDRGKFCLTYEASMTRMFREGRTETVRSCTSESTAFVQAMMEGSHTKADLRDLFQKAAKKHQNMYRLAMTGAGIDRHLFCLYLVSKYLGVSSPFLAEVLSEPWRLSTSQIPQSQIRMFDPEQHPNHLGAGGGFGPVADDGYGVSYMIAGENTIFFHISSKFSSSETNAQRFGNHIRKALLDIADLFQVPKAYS
As to the kind of experiment: SUPPLEMENTARY: Inhibition of Carnitine palmitoyltransferase 1, muscle isoform. Further details: species or system Muscle tissue.

In data set [1], `O=C(COc1ccccc1)N1CCCC[C@@H]1c1noc(C2(C(F)(F)F)CC2)n1` displayed a logD of 3.2. The Papp in data set [2] was 5.37 ×10⁻⁶ cm/s. In addition, the 50% inhibitory concentration (IC50) was 1.43 µM in data set [3]; 0.0858 µM in data set [4]; greater than 100 µM in data set [6]; greater than 100 µM in data set [7]; 29.7 µM in data set [8]. Also, the solubility kinetic in data set [5] is less than 1 µg/mL.
Consider `O=C(COc1ccccc1)N1CCCC[C@@H]1c1noc(-c2cc(Cl)nnc2O)n1`, for which, in data set [1], the logD amounted to 1.84. In addition, in data set [2], the Papp turned out to be 6.21 ×10⁻⁶ cm/s. Moreover, the IC50 in data set [3] is 0.63 µM; in data set [4], 0.122 µM; in data set [6], 23 µM; in data set [7] it was greater than 100 µM; in data set [8], 72.9 µM. Further, the solubility kinetic in data set [5] was greater than 509 µg/mL.
In turn, `COc1ccc(Cl)cc1CN1C(=O)OC(C)(C)c2ccc(C(=O)Nc3nccs3)cc21` returned a logD in data set [1] greater than 3. Moreover, the Papp in data set [2] was found to be 0.3 ×10⁻⁶ cm/s. In addition, the half-maximal inhibitory concentration (IC50) is greater than 10 µM in data set [3]; 0.278 µM in data set [4]; greater than 100 µM in data set [6]; greater than 100 µM in data set [7]; greater than 100 µM in data set [8]. In addition, the solubility kinetic in data set [5] was less than 1 µg/mL.
Regarding `O=C(COc1ccccc1)N1CCCC[C@@H]1c1noc(-c2ccc3[nH]c(=O)c(=O)[nH]c3c2)n1`, in data set [1], the logD worked out at 2.25. Besides, the Papp in data set [2] turned out to be 0.47 ×10⁻⁶ cm/s. Further, the IC50 is 0.502 µM in data set [3]; 0.14 µM in data set [4]; 17 µM in data set [6]; greater than 100 µM in data set [7]; greater than 100 µM in data set [8]. Besides, the solubility kinetic in data set [5] came to 50 µg/mL (≈ 112 µM).
Turning to `O=C(COc1ccccc1)N1CCCC[C@@H]1c1nc(-c2ccc3nccn3c2)no1`, the logD in data set [1] worked out at 2.75. Also, the Papp in data set [2] came to 6.32 ×10⁻⁶ cm/s. For the same compound, the IC50 in data set [3] was 0.334 µM; in data set [4] it was 0.167 µM; in data set [6], 14.5 µM; in data set [7], greater than 100 µM; in data set [8], 78.1 µM. Also, in data set [5], the solubility kinetic was 17 µg/mL (≈ 42.1 µM).
`O=C1COc2ccc(-c3noc([C@H]4CCCCN4C(=O)COc4ccccc4)n3)cc2N1`: the logD in data set [1] came to 3.04. Also, in data set [2], the Papp stood at 3.91 ×10⁻⁶ cm/s. For the same compound, the IC50 in data set [3] was 0.0694 µM; in data set [4], 0.0557 µM; in data set [6] it was 18 µM; in data set [7], greater than 100 µM; in data set [8], 80.8 µM. Moreover, the solubility kinetic in data set [5] turned out to be 10 µg/mL (≈ 23 µM).
The compound `COc1ccc(Cl)cc1S(=O)(=O)N1CC[S+]([O-])c2ccc(C(=O)Nc3ccc(C(=O)O)cc3)cc21` (stereo not given) displayed a logD in data set [1] of -0.34. Moreover, the Papp in data set [2] is 0.12 ×10⁻⁶ cm/s. For the same compound, the IC50 in data set [3] turned out to be 0.0368 µM; in data set [4], 0.0941 µM; in data set [6], 2.53 µM; in data set [7], 55.6 µM; in data set [8], 17.2 µM. For the same compound, the solubility kinetic in data set [5] turned out to be 34 µg/mL (≈ 63.6 µM).
Compound `O=C1CNc2ccc(-c3nc([C@H]4CCCCN4C(=O)COc4ccccc4)no3)cc2N1` had a logD in data set [1] of 2.38. Also, in data set [2], the Papp stood at 1.83 ×10⁻⁶ cm/s. Moreover, the IC50 in data set [3] was 0.458 µM; in data set [4], 0.0941 µM; in data set [6], 21.2 µM; in data set [7] it was greater than 100 µM; in data set [8], greater than 100 µM. In addition, the solubility kinetic in data set [5] was 23 µg/mL (≈ 53.1 µM).
As for `COc1ccc(Cl)cc1CN1C(=O)CS(=O)(=O)c2ccc(C(=O)Nc3nc(CC(=O)O)cs3)cc21`, in data set [1], the logD was -0.29. The Papp in data set [2] came to 0.85 ×10⁻⁶ cm/s. In addition, the IC50 in data set [3] is 0.0898 µM; in data set [4], 0.219 µM; in data set [6], greater than 100 µM; in data set [7], greater than 100 µM; in data set [8] it was 9.62 µM. Besides, the solubility kinetic in data set [5] turned out to be 417 µg/mL (≈ 778 µM).
In data set [1], `O=C1COc2ccc(-c3n[nH]c([C@H]4CCCCN4C(=O)COc4ccccc4)n3)cc2N1` showed a logD of 2.57. The Papp in data set [2] was 0.95 ×10⁻⁶ cm/s. Further, the IC50 in data set [3] was determined as 0.0616 µM; in data set [4], 0.121 µM; in data set [6], 49 µM; in data set [7], 82.8 µM; in data set [8], 94.2 µM. Besides, the solubility kinetic in data set [5] was 62 µg/mL (≈ 143 µM).
